Assay results from paper PMC10799935, “Discovery of a peripheral 5HT2A antagonist as a clinical candidate for metabolic dysfunction-associated steatohepatitis” (Nature Communications, 2024).
Values joined by “and” are separate entries in the source; they are usually repeats but may differ in a detail not shown here. Equal values may be shown once.

Key:
HFD-fed C57BL/6J mice [1] = experiment: DIO mice (HFD, 8 weeks): body weight; format: in vivo, mouse; conditions: DIO mice, individual mice and group Mean, in g (unit assumed)
Description: (§1) For in vivo efficacy in DIO models and CDAHFD models, the experimental protocol for this study was approved by the Institutional Animal Care and Use Committee (IACUC) at the Korea Advanced Institute of Science and Technology (No. KA2023-027-v2) or Kyungpook National University (No. KNU-20200134). All relevant ethical guidelines were followed. C57BL/6 J male mice (11 weeks old) were purchased from the Charles River Japan and were housed in a specific pathogen-free barrier facility under a regular light-dark cycle (12-hour light/12-hour dark) at 24°C with 40–60% humidity. Food (standard chow diet, Envigo, 2018S) and water were provided ad libitum. […] Mice were euthanized by the method of cervical dislocation. The measurement of lean and fat mass in live mice was performed by a body composition analyzer (LF50 BCA-analyzer, Bruker). After 6 h of fasting, mice were sacrificed, and tissue samples were obtained.

HFD-fed C57BL/6J mice [2] = experiment: DIO mice: body composition (fat and lean mass); format: in vivo, mouse; parameters: Body Mass RAW Fluid / Body Mass RAW Fat body mass / Body Mass RAW Lean body mass / Fat Body: Mean Diff., Vehicle vs. 11c / Lean Body: Mean Diff., Vehicle vs. 11c: unit not given here; conditions: for Fat Body: Mean Diff., Vehicle vs. 11c / Lean Body: Mean Diff., Vehicle vs. 11c: Dunnett's test; for Body Mass Analysis (%) Fat body mass / Body Mass Analysis (%) Lean body mass / Body Mass RAW Fat body mass / Body Mass RAW Lean body mass / Body Weight (body mass sheet) / Body Mass Analysis (%) Fluid / Body Mass RAW Fluid: DIO mice, individual mice and group Mean; for Body Weight (body mass sheet): in g (unit assumed)
Description: as §1

Cc1nc2n(c(=O)c1CCN1CCC(=C3c4ccc(Cl)cc4CCc4cccnc43)CC1)CCCC2O (stereo not drawn) [Compound 11c]
Body weight (HFD-fed C57BL/6J mice [1]; 5mpk PO, week 20, 5 mg/kg, mean): 43.2 | Body weight (HFD-fed C57BL/6J mice [1]; 5mpk PO, week 21, 5 mg/kg): 44.4 and 40.2 and 39.8 and 36.4 and 42.4 and 50.0 and 45.2 | Body weight (HFD-fed C57BL/6J mice [1]; 5mpk PO, week 21, 5 mg/kg, mean): 42.6 | Body weight (HFD-fed C57BL/6J mice [1]; 10mpk PO, week 12 (2021.04.26), 10 mg/kg): 26.6 and 29.1 | Body weight (HFD-fed C57BL/6J mice [1]; 10mpk PO, week 13, 10 mg/kg): 29.9 and 31.2 | Body weight (HFD-fed C57BL/6J mice [1]; 10mpk PO, week 14, 10 mg/kg): 31.8 and 32.6 | Body weight (HFD-fed C57BL/6J mice [1]; 10mpk PO, week 15, 10 mg/kg): 34.0 and 33.3 and 29.5 | Body weight (HFD-fed C57BL/6J mice [1]; 10mpk PO, week 16, 10 mg/kg): 36.3 and 34.1 and 30.0 | Body weight (HFD-fed C57BL/6J mice [1]; 10mpk PO, week 17, 10 mg/kg): 36.6 and 35.0 and 29.8 | Body weight (HFD-fed C57BL/6J mice [1]; 10mpk PO, week 18, 10 mg/kg): 35.5 and 37.1 | Body weight (HFD-fed C57BL/6J mice [1]; 10mpk PO, week 19, 10 mg/kg): 34.6 and 39.9 | Body weight (HFD-fed C57BL/6J mice [1]; 10mpk PO, week 20, 10 mg/kg): 35.7 and 43.1 | Body weight (HFD-fed C57BL/6J mice [1]; 10mpk PO, week 21, 10 mg/kg): 36.0 and 43.2 | Fat Body: Mean Diff., Vehicle vs. 11c (HFD-fed C57BL/6J mice [2]; 5mpk): 1.897 | Lean Body: Mean Diff., Vehicle vs. 11c (HFD-fed C57BL/6J mice [2]; 5mpk): 3.43 | fat mass (HFD-fed C57BL/6J mice [2]; 10 mpk daily oral gavage, 8 weeks, vs vehicle-treated mice): reduced | Fat Body: Mean Diff., Vehicle vs. 11c (HFD-fed C57BL/6J mice [2]; 10mpk): 12.76 | Lean Body: Mean Diff., Vehicle vs. 11c (HFD-fed C57BL/6J mice [2]; 10mpk): 4.653 | Body Mass Analysis (%) Fat body mass (HFD-fed C57BL/6J mice [2]; 5mpk, 5 mg/kg): 34.69% | Body Mass Analysis (%) Lean body mass (HFD-fed C57BL/6J mice [2]; 5mpk, 5 mg/kg): 52.41% | Body Mass Analysis (%) Fat body mass (HFD-fed C57BL/6J mice [2]; 5mpk, 5 mg/kg, group mean): 34.7% | Body Mass Analysis (%) Lean body mass (HFD-fed C57BL/6J mice [2]; 5mpk, 5 mg/kg, group mean): 52.4% | Body Mass RAW Fat body mass (HFD-fed C57BL/6J mice [2]; 5mpk, 5 mg/kg, group mean): 15.9 | Body Mass RAW Lean body mass (HFD-fed C57BL/6J mice [2]; 5mpk, 5 mg/kg, group mean): 23.8 | Body Weight (body mass sheet) (HFD-fed C57BL/6J mice [2]; 5mpk, 5 mg/kg): 45.7 and 40.4 and 39.5 and 37 and 43.5 and 51 and 45.4 | Body Mass Analysis (%) Fluid (HFD-fed C57BL/6J mice [2]; 5mpk, 5 mg/kg, mean): 6.8% | Body Mass RAW Fluid (HFD-fed C57BL/6J mice [2]; 5mpk, 5 mg/kg, mean): 3.1 | Body Mass Analysis (%) Fat body mass (HFD-fed C57BL/6J mice [2]; 5mpk, listed as 11C, 5 mg/kg): 42.9% and 30.1% and 27.5% and 28.0% and 34.3% and 39.1% and 41.1% | Body Mass Analysis (%) Fluid (HFD-fed C57BL/6J mice [2]; 5mpk, listed as 11C, 5 mg/kg): 7.2% and 5.5% and 5.6% and 5.7% and 8.1% and 8.2% and 7.4% | Body Mass Analysis (%) Lean body mass (HFD-fed C57BL/6J mice [2]; 5mpk, listed as 11C, 5 mg/kg): 50.9% and 41.8% and 44.8% and 51.8% and 63.0% and 63.1% and 51.4% | Body Mass RAW Fat body mass (HFD-fed C57BL/6J mice [2]; 5mpk, listed as 11C, 5 mg/kg): 19.5 and 15.6 and 13.7 and 11.6 and 14.0 and 17.9 and 18.8 | Body Mass RAW Fluid (HFD-fed C57BL/6J mice [2]; 5mpk, listed as 11C, 5 mg/kg): 3.3 and 2.8 and 2.4 and 3.7 and 3.4 | Body Mass RAW Lean body mass (HFD-fed C57BL/6J mice [2]; 5mpk, listed as 11C, 5 mg/kg): 23.2 and 21.7 and 22.3 and 21.5 and 25.8 and 28.9 and 23.5 | Body Mass Analysis (%) Fluid (HFD-fed C57BL/6J mice [2]; 10mpk, 10 mg/kg): 7.1% and 5.8% and 4.8% and 8.2% and 9.4% | Body Mass RAW Fat body mass (HFD-fed C57BL/6J mice [2]; 10mpk, 10 mg/kg): 8.4 and 13.9 and 12.4 and 15.4 and 9.5 and 5.7 | Body Mass RAW Fluid (HFD-fed C57BL/6J mice [2]; 10mpk, 10 mg/kg): 3.2 and 3.0 and 2.4 and 3.4 and 3.9 and 2.2 | Body Mass RAW Lean body mass (HFD-fed C57BL/6J mice [2]; 10mpk, 10 mg/kg): 22.2 and 25.2 and 20.6 and 25.5 and 23.2 and 23.1 | Body Mass RAW Lean body mass (HFD-fed C57BL/6J mice [2]; 10mpk, 10 mg/kg, group mean): 23.3 | Body Weight (body mass sheet) (HFD-fed C57BL/6J mice [2]; 10mpk, 10 mg/kg): 35.7 and 43.1 and 36.3 and 45.2 and 38.2 and 33.4 | Body Weight (body mass sheet) (HFD-fed C57BL/6J mice [2]; 10mpk, 10 mg/kg, mean): 38.7 | Body Mass Analysis (%) Fluid (HFD-fed C57BL/6J mice [2]; 10mpk, 10 mg/kg, mean): 6.7% | Body Mass RAW Fat body mass (HFD-fed C57BL/6J mice [2]; 10mpk, 10 mg/kg, mean): 10.9
